The target in experiment [1] is T1, recombinant Aurora A (Homo sapiens, UniProt O14965).
T1 construct: purchased Upstate, Lake Placid, N.Y
T1 sequence (O14965 1-403): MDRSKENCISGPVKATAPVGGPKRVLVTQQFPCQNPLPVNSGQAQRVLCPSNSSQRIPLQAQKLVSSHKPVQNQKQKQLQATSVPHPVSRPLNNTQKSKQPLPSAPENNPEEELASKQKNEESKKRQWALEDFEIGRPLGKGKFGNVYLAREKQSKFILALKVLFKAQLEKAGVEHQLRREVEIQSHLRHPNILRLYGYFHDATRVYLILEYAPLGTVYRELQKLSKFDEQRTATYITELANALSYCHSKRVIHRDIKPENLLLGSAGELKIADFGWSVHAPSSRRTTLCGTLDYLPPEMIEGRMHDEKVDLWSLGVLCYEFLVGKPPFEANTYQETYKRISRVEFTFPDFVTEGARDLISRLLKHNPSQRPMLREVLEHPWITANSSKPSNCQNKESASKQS
Briefly: PanVera Z'-Lyte Aurora kinase assay. Format: biochemical. The following applies: Z'-Lyte Ser/Thr 1 peptide 2 μM, ATP 10 μM, 1 h. As for the experimental part: Compounds 7-14 above were tested for their potency against recombinant Aurora A (Upstate, Lake Placid, N.Y.) using the PanVera Z'-Lyte kinase assay kit—Ser/Thr 1 peptide (Invitrogen, Carlsbad, Calif.). Assays were carried out in kinase assay buffer (50 mM HEPES, pH 7.5, 10 mM MgCl2, 5 mM EGTA, 0.05% Brij-35, 2 mM DTT). Test compounds were initially dissolved in DMSO at 100× the highest tested concentration, then serially diluted to 4× test concentrations in kinase assay buffer. Next, Aurora A (final concentration 200-500 ng/mL), Z′-Lyte Ser/Thr 1 peptide (final concentration 2 μM) and ATP (final concentration 10 μM) were added according to the manufacturer's instructions. Assays were carried out in half-area 96-well white polystyrene assay plates (Corning, Corning, N.Y.) in a final volume of 20 μL. The reaction was allowed to proceed for 1 h at room temperature in the dark, at which point the development reagent and stop reagent were added according to the manufacturer's instructions. Coumarin (Ex. 400 nm, Em. 465 nm) and fluorescein (Ex. 400 nm, Em. 565 nm) fluorescence values were measured on a SpectraFluor Plus plate reader (Tecan, Durham, N.C.). The emission ratio (coumarin/fluorescein) was determined and used to calculate the percent phosphorylation for each well. Wells containing substrate but no kinase and wells containing a phosphopeptide control were used to set 0% and 100% phosphorylation values, respectively. Typically 20-40% of the substrate was phosphorylated in wells without inhibitor. Dose-response curves of relative Aurora A activity vs. inhibitor concentration were plotted with Grafit (Erithacus Software, Horley, Surrey, UK) and used to calculate IC50 values.

Experiment [2] deals with HCT 116 Cells. As to the kind of experiment: Aurora kinase whole cell cytotoxicity assay: Sulforhodamine B. Format: cell-based. The conditions noted are these: Homo sapiens, HCT116, SRB staining, 96 hours incubation. As for the experimental part: Human tumour-derived cell lines, HCT116 or MCF7 (ATCC) were plated in a 96 well plate in DMEM containing 10% fetal bovine serum and 2 mM L-glutamine at a density of 500 HCT116 cells or 1,000 MCF7 cells per well and incubated at 37° C., 5% CO2, for 24 hours prior to the addition of experimental compounds. Compounds were added using the dilution series indicated to duplicate plates and the cells were incubated in media plus compound for 96 hours. An additional plate was fixed in 10% TCA at the time of the addition of compound to provide a measurement of the cell population at time zero, the time of drug addition. Following the 96 hour incubation, cells were fixed in situ by gently aspirating off the culture media and then adding 50 ul of ice cold 10% TCA per well and incubation at 4° C. for 60 minutes. The plates were washed with tap water five times and allowed to air dry for 5 minute. 50 ul of a 0.4% (w/v) Sulforhodamine B solution in 1% (v/v) acetic acid was added per well and the cells were incubated for 30 minutes at room temperature. Following staining, plates were washed four times with 1% acetic acid to remove any unbound dye and then allowed to air dry for 5 minutes. The stain was solubilized with 100 ul of 10 mM Tris pH 10.5 per well and placed on an orbital rotator for 5 minutes. The absorbance was read at 570 nm. Percentage growth was calculated using the absorbance readings from the time zero plate (Tz) and the dilution series plate […] which included a column of cells grown in media without compound as a control (C) using the formulas: [(Ti−Tz)/(C−Tz)]×100 for concentrations for which Ti>/=Tz [(Ti−Tz)/Tz]×100 for concentrations for which Ti<Tz.
Three dose response parameters were calculated for each experimental agent. Growth inhibition of 50% (GI50) was calculated from [(Ti−Tz)/(C−Tz)]×100=50, which was the drug concentration resulting in a 50% reduction in the net protein increase (as measured by SRB staining) in control cells during the drug incubation. The drug concentration resulting in total growth inhibition (TGI) was calculated from Ti=Tz. The LC50 (concentration of drug resulting in a 50% reduction in the measured protein at the end of the drug treatment as compared to that at the beginning) indicating a net loss of cells following treatment ws calculated from [(Ti−Tz)/Tz]×100=−50. Values are calculated for each of these three parameters if the level of activity was reached; however, if the effect was not reached or was exceeded, the value for that parameter is expressed as greater or less than the maximum or minimum concentration tested.
On the technique in general: In SRB staining, fixed cells bind dye roughly in proportion to their protein.

Some results are limits rather than exact numbers.

On to `Cc1cc(Nc2nc(Sc3ccc(NC(=O)C4CC4)cc3)nc(C(=O)NCCN(C)C)c2N)n[nH]1` [Compound 12, N-[2-(N,N-dimethylamino)ethyl]-2-(4-cyclopropane-carboxamidophenylsulfanyl)-5-amino-6-(5-methylpyrazol-3-ylamino)-4-pyrimidine carboxamide], for which the IC50 – broadly, the point on the concentration scale where inhibition reaches its midpoint – in experiment [1] was under 100 nM. Moreover, the GI50 (usually the concentration at which growth is held to half of that of the control) in experiment [2] fell in the range of 1000 to 10000 nM.
As for `CCOC(=O)c1nc(Nc2ccc(NC(C)=O)nc2)nc(Nc2cc(C)[nH]n2)c1N` [Compound 34, Ethyl 2-(6-acetylamido-3-pyridylamino)-5-amino-6-(5-methylpyrazol-3-ylamino)-4-pyrimidinecarboxylate], the IC50 in experiment [1] was 100 to 1000 nM.
As to `Cc1cc(Nc2nc(Sc3ccc(NC(=O)C4CC4)cc3)nc(C(=O)NC3CCCCC3)c2N)n[nH]1` [Compound 62, N-Cyclohexyl 2-(4-cyclopropanecarboxamidophenylsulfanyl)-5-amino-6-(5-methylpyrazol-3-ylamino)-4-pyrimidinecarboxamide], in experiment [1], the IC50 lay within 100 to 1000 nM. The compound also displayed a GI50 in experiment [2] of 1000 to 10000 nM.
For `Cc1cc(Nc2nc(Sc3ccc(NC(=O)C4CC4)cc3)nc(C(=O)Nc3ccccc3)c2N)n[nH]1` [Compound 60, N-Phenyl 2-(4-cyclopropanecarboxamidophenylsulfanyl)-5-amino-6-(5-methylpyrazol-3-ylamino)-4-pyrimidinecarboxamide], the IC50 in experiment [1] lay in the range of 100 to 1000 nM.
With `Cc1cc(Nc2nc(Sc3ccc(NC(=O)C4CC4)cc3)nc(C(=O)N3CCOCC3)c2N)n[nH]1` [Compound 44, Morpholin-4-yl 2-(4-cyclopropanecarboxamidophenylsulfanyl)-5-amino-6-(5-methylpyrazol-3-ylamino)-4-pyrimidinecarboxamide], in experiment [1], the half-maximal inhibitory concentration (IC50) was under 100 nM. For the same compound, the GI50 in experiment [2] lay within 1000 to 10000 nM.
Taken in the same sequence, the figures for `Cc1cc(Nc2nc(Sc3ccc(NC(=O)C4CC4)cc3)nc(C(=O)OC3CCCCC3)c2N)n[nH]1` [Compound 42, Cyclohexyl 2-(4-cyclopropanecarboxamidophenylsulfanyl)-5-amino-6-(5-methylpyrazol-3-ylamino)-4-pyrimidinecarboxylate] were under 100 nM and 100 to 1000 nM.
Taken in the same sequence, the figures for `Cc1cc(Nc2nc(Sc3ccc(NC(=O)C4CC4)cc3)nc(C(=O)N3CCN(C)CC3)c2N)n[nH]1` [Compound 68] were 1000 to 10000 nM and 1000 to 10000 nM.
Turning to `COCCOC(=O)c1nc(Sc2ccc(NC(=O)C3CC3)cc2)nc(Nc2cc(C)[nH]n2)c1N` [Compound 40, 2-Methoxyethyl 2-(4-cyclopropanecarboxamidophenylsulfanyl)-5-amino-6-(5-methylpyrazol-3-ylamino)-4-pyrimidinecarboxylate], the IC50 in experiment [1] is under 100 nM. The 50% growth inhibitory concentration (GI50) in experiment [2] lay in the range of 100 to 1000 nM.
For `CSCCOC(=O)c1nc(Sc2ccc(NC(=O)C3CC3)cc2)nc(Nc2cc(C)[nH]n2)c1N` [Compound 41], in that order: under 100 nM and 100 to 1000 nM.
As for `Cc1cc(Nc2nc(Sc3ccc(NC(=O)C4CC4)cc3)nc(C(=O)OC(C)C)c2N)n[nH]1` [Compound 49, Isopropyl 2-(4-cyclopropanecarboxamidophenylsulfanyl)-5-amino-6-(5-methylpyrazol-3-ylamino)-4-pyrimidinecarboxylate], in experiment [1], the IC50 was under 100 nM. In experiment [2], this compound yielded a GI50 of 100 to 1000 nM.
As to `Cc1cc(Nc2nc(Sc3ccc(NC(=O)C4CC4)cc3)nc(C(=O)OC3CCN(C)CC3)c2N)n[nH]1` [Compound 47, 1-Methylpiperidin-4-yl 2-(4-cyclopropanecarboxamidophenylsulfanyl)-5-amino-6-(5-methylpyrazol-3-ylamino)-4-pyrimidinecarboxylate], in experiment [1], the IC50 was under 100 nM. In experiment [2], this compound showed a concentration for 50% growth inhibition (GI50) of 100 to 1000 nM.
In the case of `CSCCNC(=O)c1nc(Sc2ccc(NC(=O)C3CC3)cc2)nc(Nc2cc(C)[nH]n2)c1N` [Compound 56, N-(2-Methylthioethyl) 2-(4-cyclopropanecarboxamidophenylsulfanyl)-5-amino-6-(5-methylpyrazol-3-ylamino)-4-pyrimidinecarboxamide], in experiment [1], the half-inhibitory concentration (IC50) is under 100 nM. For the same compound, the GI50 in experiment [2] was 100 to 1000 nM.
For `Cc1cc(Nc2nc(Sc3ccc(NC(=O)C4CC4)cc3)nc(C(=O)OCCN(C)C)c2N)n[nH]1` [Compound 46, 2-Dimethylaminoethyl 2-(4-cyclopropanecarboxamidophenylsulfanyl)-5-amino-6-(5-methylpyrazol-3-ylamino)-4-pyrimidinecarboxylate], in that order: under 100 nM and 100 to 1000 nM.
`Cc1cc(Nc2nc(Sc3ccc(NC(=O)C4CC4)cc3)nc(C(=O)Nc3ccncc3)c2N)n[nH]1` [Compound 51, N-Pyridin-4-yl 2-(4-cyclopropanecarboxamidophenylsulfanyl)-5-amino-6-(5-methylpyrazol-3-ylamino)-4-pyrimidinecarboxamide]: in experiment [1], the concentration for half-maximal inhibition (IC50) was under 100 nM. In experiment [2], this compound came in with a GI50 of 1000 to 10000 nM.
Taken in the same sequence, the figures for `Cc1cc(Nc2nc(Sc3ccc(NC(=O)C4CC4)cc3)nc(C(=O)NCCN3CCCCC3)c2N)n[nH]1` [Compound 17, N-(2-Piperidin-1-ylethyl) 2-(4-cyclopropanecarboxamidophenylsulfanyl)-5-amino-6-(5-methylpyrazol-3-ylamino)-4-pyrimidinecarboxamide] were under 100 nM and 100 to 1000 nM.
`CCOC(=O)c1nc([S+]([O-])c2ccc(NC(=O)C3CC3)cc2)nc(Nc2cc(C)[nH]n2)c1N` (centres unmarked) [Compound 14, ethyl 2-(4-cyclopropane-carboxamidophenylsulfinyl)-5-amino-6-(5-methylpyrazol-3-ylamino)-4-pyrimidinecarboxylate]: the half-maximal inhibitory concentration (IC50) in experiment [1] was under 100 nM.
Same read-out and setting: under `Cc1cc(Nc2nc(Sc3ccc(NC(=O)C4CC4)cc3)nc(C(=O)O)c2N)n[nH]1` [Compound 8, 2-(4-Cyclopropanecarboxamidophenylsulfanyl)-5-amino-6-(5-methylpyrazol-3-ylamino)-4-pyrimidinecarboxylic acid] stands under 100 nM; under `CCOC(=O)c1nc(S(=O)(=O)c2ccc(NC(=O)C3CC3)cc2)nc(Nc2cc(C)[nH]n2)c1N` [Compound 13, Ethyl 2-(4-cyclopropanecarboxamidophenylsulfonyl)-5-amino-6-(5-methylpyrazol-3-ylamino)-4-pyrimidinecarboxylate], under 100 nM.
The same measure, in the same setting: under `CNC(=O)c1nc(Sc2ccc(NC(=O)C3CC3)cc2)nc(Nc2cc(C)[nH]n2)c1N` [Compound 9, Methyl 2-(4-cyclopropanecarboxamidophenylsulfanyl)-5-amino-6-(5-methylpyrazol-3-ylamino)-4-pyrimidinecarboxamide] stands under 100 nM.

The values above are taken from US8153630B2, “Kinase inhibitors” (Miikana Therapeutics, Inc., priority 2004, dated 2012).
